Source: patent US11147778B2, “Siderophore-polymer conjugates for increasing bacterial sensitivity to antibiotics” (Wisconsin Alumni Research Foundation, priority 2016, dated 2021)
Where two headings read alike, the source gives them in different places. One block for each molecule: values may come before it.

What was measured:
[1] = system: P. aeruginosa MDR strain 24530; experiment: Disk diffusion, zones of inhibition; assay type: cell-based, Pseudomonas aeruginosa
Procedure: (§1) Single colonies were grown in MHB to match a 0.5 McFarland standard. A sterile cotton swab was dipped into the various MDR strain inoculums and spread evenly over the surface of the agar plates. Purchased antibiotic-containing disks at fixed concentrations (Table 4) were placed on the surface of each plate and incubated overnight at 37° C. Zones of inhibition were measured the following morning. Measurements included the diameter (d) of the antibiotic disk (6 mm) and are reported in terms of diameters and areas. […] Typically for diameters, R<10, I 11-15, and S>15 where R=resistance, I=intermediate resistance, and S=susceptible.

P. aeruginosa PAO1 [2] = experiment: Disk diffusion, zones of inhibition; assay type: cell-based, Pseudomonas aeruginosa
Procedure: as §1

[3] = system: P. aeruginosa MDR strain 3072; experiment: Disk diffusion, zones of inhibition; assay type: cell-based, Pseudomonas aeruginosa
Procedure: as §1

P. aeruginosa ATCC 27853 [4] = experiment: Disk diffusion, zones of inhibition; assay type: cell-based, Pseudomonas aeruginosa; details: for zone of inhibition, A: same disks and plates
Procedure: as §1

[5] = system: MDR strains (2638, 3072, and 24530) of P. aeruginosa; experiment: Growth inhibition by F127-(DFO-Ga)2/ERY, MDR strains; assay type: cell-based, Pseudomonas aeruginosa; details: 244 μM F127-(DFO-Ga)2 and/or 50 μg/mL ERY
Procedure: At time points of 0, 1, 2, and 4 hours, a small aliquot was removed from the broth culture, logarithmically diluted in M9 salts, and then spread onto cation-adjusted Mueller-Hinton agar plates. After overnight incubation at 37° C., colonies were counted and the number of CFU/mL was calculated.

[6] = system: P. aeruginosa reference strains (ATCC 27853 and PAO1); experiment: Dose response of growth (OD600) to F127-(DFO-Ga)2/ERY; assay type: cell-based, Pseudomonas aeruginosa; details: 50 μg/mL ERY alone
P. aeruginosa MDR 2638 = experiment: Broth microdilution MIC / FICI; assay type: cell-based; details: Pseudomonas aeruginosa, MDR2638
Procedure: (§2) Antimicrobial efficacy was assessed by the broth microdilution assay in accordance with NCCLS guidelines (Coyle, Marie B. Manual of antimicrobial susceptibility testing. American Society for Microbiology, 2005). Organisms were grown overnight on non-selective MHA medium in order to obtain single colonies. Three to five morphologically distinct colonies were touched with a sterile pipet tip and transferred to a culture tube containing MHB (4 mL), and the broth culture was incubated at 37° C. until its turbidity matched a 0.5 McFarland Standard. The inoculum was then diluted 1:20 in sterile water, followed by a 1:10 dilution when inoculating wells of a 96-well plate. […] For combinations, the fractional inhibitory concentration index (FICI) was calculated using the following equation: […]

P. aeruginosa MDR 3072 = experiment: Broth microdilution MIC / FICI; assay type: cell-based; details: Pseudomonas aeruginosa, MDR3072
Procedure: as §2

P. aeruginosa MDR 24530 = experiment: Broth microdilution MIC / FICI; assay type: cell-based; details: Pseudomonas aeruginosa, MDR24530
Procedure: as §2

E. coli ATCC 25922 = experiment: Broth microdilution MIC / FICI; assay type: cell-based; details: Escherichia coli, ATCC25922
Procedure: (§3) Antimicrobial efficacy was assessed by the broth microdilution assay in accordance with NCCLS guidelines (Coyle, Marie B. Manual of antimicrobial susceptibility testing. American Society for Microbiology, 2005). Organisms were grown overnight on non-selective MHA medium in order to obtain single colonies. Three to five morphologically distinct colonies were touched with a sterile pipet tip and transferred to a culture tube containing MHB (4 mL), and the broth culture was incubated at 37° C. until its turbidity matched a 0.5 McFarland Standard. The inoculum was then diluted 1:20 in sterile water, followed by a 1:10 dilution when inoculating wells of a 96-well plate. […] For combinations, the fractional inhibitory concentration index (FICI) was calculated using the following equation: [formula]

P. aeruginosa PAO1 [7] = experiment: Broth microdilution MIC / FICI; assay type: cell-based; details: Pseudomonas aeruginosa
Procedure: as §3

P. aeruginosa ATCC 27853 [8] = experiment: Broth microdilution MIC / FICI; assay type: cell-based; details: Pseudomonas aeruginosa, ATCC27853
Procedure: as §3

[9] = Pseudomonas aeruginosa, 24530, disks NVB 30 μg, ERY 15 μg, RIF 5 μg, VAN 30 μg, MHA with or without 256 μM DG-F125, includes 6 mm disk, read-out: zone of inhibition, d
[10] = Pseudomonas aeruginosa, PAO1, disks NVB 30 μg, ERY 15 μg, RIF 5 μg, VAN 30 μg, MHA with or without 256 μM DG-F125, includes 6 mm disk, read-out: zone of inhibition, d
[11] = Pseudomonas aeruginosa, 3072, disks NVB 30 μg, ERY 15 μg, RIF 5 μg, VAN 30 μg, MHA with or without 256 μM DG-F125, includes 6 mm disk, read-out: zone of inhibition, d
[12] = Pseudomonas aeruginosa, ATCC27853, 27853, disks NVB 30 μg, ERY 15 μg, RIF 5 μg, VAN 30 μg, MHA with or without 256 μM DG-F125, includes 6 mm disk, read-out: zone of inhibition, d
[13] = E. coli ATCC 25922, Example 9, read-out: MIC (Table 7, agent alone)
[14] = E. coli ATCC 25922, antibiotic alone, Table 3, read-out: MIC
[15] = P. aeruginosa PAO1, Example 9, read-out: MIC (Table 7, agent alone)
[16] = P. aeruginosa ATCC 27853, Example 9, read-out: MIC (Table 7, agent alone)
[17] = MDR 2638, antibiotic alone, read-out: MIC
[18] = MDR 3072, antibiotic alone, read-out: MIC
[19] = MDR 24530, antibiotic alone, read-out: MIC
[20] = PAO1, antibiotic alone, Table 3, read-out: MIC
[21] = Pseudomonas aeruginosa, read-out: zone of inhibition, d

Compound: CC[C@H]1OC(=O)[C@H](C)[C@@H](O[C@H]2C[C@@](C)(OC)[C@@H](O)[C@H](C)O2)[C@H](C)[C@@H](O[C@@H]2O[C@H](C)C[C@H](N(C)C)[C@H]2O)[C@](C)(O)C[C@@H](C)C(=O)[C@H](C)[C@@H](O)[C@]1(C)O [ERY, erythromycin]
A of region where some growth is still visible (in parentheses) ([1]; 24530, same disks and plates): (133) mm^2
d of region where some growth is still visible (in parentheses) ([1]; 24530, same disks and plates): (13) mm
zone of inhibition, A ([1]; 24530, same disks and plates): 0 mm^2
zone of inhibition at 15 µg/disc [1, 9]: 0 mm
zone of inhibition, A (P. aeruginosa PAO1 [2]; PAO1, same disks and plates): 64 mm^2
zone of inhibition at 15 µg/disc (P. aeruginosa PAO1 [2]; [10]): 9 mm
A of region where some growth is still visible (in parentheses) ([3]; 3072, same disks and plates): (283) mm^2
d of region where some growth is still visible (in parentheses) ([3]; 3072, same disks and plates): (19) mm
zone of inhibition, A ([3]; 3072, same disks and plates): 0 mm^2
zone of inhibition at 15 µg/disc [3, 11]: 0 mm
zone of inhibition, A (P. aeruginosa ATCC 27853 [4]; 27853): 95 mm^2
zone of inhibition at 15 µg/disc (P. aeruginosa ATCC 27853 [4]; [12]): 11 mm
bacterial growth [5]: similarly ineffective
reduction in the OD600 compared to the positive control [6]: approximately 40%
MIC (P. aeruginosa MDR 2638): 512 µg/mL
MIC (P. aeruginosa MDR 3072): 512 µg/mL
MIC (P. aeruginosa MDR 24530): 512 µg/mL
MIC (E. coli ATCC 25922; [13]): 32 µg/mL
MIC (E. coli ATCC 25922; [14]): 32 µg/mL
MIC (P. aeruginosa PAO1 [7]; PAO1): 256 µg/mL
MIC (P. aeruginosa PAO1 [7]; [15]): > 128 µg/mL
MIC (P. aeruginosa ATCC 27853 [8]): 256 µg/mL
MIC (P. aeruginosa ATCC 27853 [8]; [16]): > 128 µg/mL

Compound: CO[C@@H]1[C@@H](OC(N)=O)[C@@H](O)[C@H](Oc2ccc3c(O)c(NC(=O)c4ccc(O)c(CC=C(C)C)c4)c(=O)oc3c2C)OC1(C)C [NVB, novobiocin sodium]
zone of inhibition, A ([1]; 24530, same disks and plates): 0 mm^2
zone of inhibition at 30 µg/disc [1, 9]: 0 mm
zone of inhibition, A (P. aeruginosa PAO1 [2]; PAO1, same disks and plates): 0 mm^2
zone of inhibition at 30 µg/disc (P. aeruginosa PAO1 [2]; [10]): 0 mm
zone of inhibition, A ([3]; 3072, same disks and plates): 0 mm^2
zone of inhibition at 30 µg/disc [3, 11]: 0 mm
zone of inhibition, A (P. aeruginosa ATCC 27853 [4]; 27853): 44 mm^2
zone of inhibition at 30 µg/disc (P. aeruginosa ATCC 27853 [4]; [12]): 7.5 mm
MIC (P. aeruginosa MDR 2638; [17]): > 512 µg/mL
MIC (P. aeruginosa MDR 3072; [18]): > 512 µg/mL
MIC (P. aeruginosa MDR 24530; [19]): > 512 µg/mL
MIC (E. coli ATCC 25922; [13]): 48 µg/mL
MIC (E. coli ATCC 25922; [14]): 32 µg/mL
MIC (P. aeruginosa PAO1 [7]; [15]): > 128 µg/mL
MIC (P. aeruginosa PAO1 [7]; [20]): > 512 µg/mL
MIC (P. aeruginosa ATCC 27853 [8]): 128 µg/mL
MIC (P. aeruginosa ATCC 27853 [8]; [16]): > 128 µg/mL

MIC (P. aeruginosa MDR 2638; [17]): 8 µg/mL
MIC (P. aeruginosa MDR 3072; [18]): 16 µg/mL
MIC (P. aeruginosa MDR 24530; [19]): 16 µg/mL
MIC (E. coli ATCC 25922; [14]): 4 µg/mL
MIC (P. aeruginosa PAO1 [7]; [20]): 16 µg/mL
MIC (P. aeruginosa ATCC 27853 [8]; ATCC 27853, antibiotic alone, Table 3, read-out: MIC): 16 µg/mL
Compound: CO[C@H]1/C=C/O[C@@]2(C)Oc3c(C)c(O)c4c(O)c(c(/C=N/N5CCN(C)CC5)c(O)c4c3C2=O)NC(=O)/C(C)=C\C=C\[C@H](C)[C@H](O)[C@@H](C)[C@@H](O)[C@@H](C)[C@H](OC(C)=O)[C@@H]1C [RIF, rifampicin]
zone of inhibition, A ([1]; 24530, same disks and plates): 0 mm^2
zone of inhibition at 5 µg/disc [1, 9]: 0 mm
zone of inhibition, A (P. aeruginosa PAO1 [2]; PAO1, same disks and plates): 33 mm^2
zone of inhibition at 5 µg/disc (P. aeruginosa PAO1 [2]; [10]): 6.5 mm
zone of inhibition, A ([3]; 3072, same disks and plates): 0 mm^2
zone of inhibition at 5 µg/disc [3, 11]: 0 mm
zone of inhibition, A (P. aeruginosa ATCC 27853 [4]; 27853): 0 mm^2
zone of inhibition at 5 µg/disc (P. aeruginosa ATCC 27853 [4]; [12]): 0 mm

Compound: CN[C@H](CC(C)C)C(=O)N[C@H]1C(=O)N[C@@H](CC(N)=O)C(=O)N[C@H]2C(=O)N[C@H]3C(=O)N[C@H](C(=O)N[C@H](C(=O)O)c4cc(O)cc(O)c4-c4cc3ccc4O)[C@H](O)c3ccc(c(Cl)c3)Oc3cc2cc(c3O[C@@H]2O[C@H](CO)[C@@H](O)[C@H](O)[C@H]2O[C@H]2C[C@](C)(N)[C@H](O)[C@H](C)O2)Oc2ccc(cc2Cl)[C@H]1O [VAN, vancomycin]
zone of inhibition, A ([1]; 24530, same disks and plates): 0 mm^2
zone of inhibition at 30 µg/disc [1, 21]: 0 mm
A of region where some growth is still visible (in parentheses) (P. aeruginosa PAO1 [2]; PAO1, same disks and plates): 64 mm^2
d of region where some growth is still visible (in parentheses) (P. aeruginosa PAO1 [2]; PAO1, same disks and plates): 9 mm
zone of inhibition, A (P. aeruginosa PAO1 [2]; PAO1, same disks and plates): 0 mm^2
zone of inhibition at 30 µg/disc (P. aeruginosa PAO1 [2]; Pseudomonas aeruginosa, PAO1, read-out: zone of inhibition, d): 0 mm
zone of inhibition, A ([3]; 3072, same disks and plates): 0 mm^2
zone of inhibition at 30 µg/disc [3, 21]: 0 mm
zone of inhibition, A (P. aeruginosa ATCC 27853 [4]; 27853): 0 mm^2
zone of inhibition at 30 µg/disc (P. aeruginosa ATCC 27853 [4]; Pseudomonas aeruginosa, ATCC27853, read-out: zone of inhibition, d): 0 mm
MIC (P. aeruginosa MDR 2638): 512 µg/mL
MIC (P. aeruginosa MDR 3072): > 1020 µg/mL
MIC (P. aeruginosa MDR 24530): 1020 µg/mL
MIC (E. coli ATCC 25922): 128 µg/mL
MIC (P. aeruginosa PAO1 [7]; PAO1): > 1020 µg/mL
MIC (P. aeruginosa ATCC 27853 [8]): > 1020 µg/mL
